Experimental data as given in US8097773B2, “Process for selecting banana clones and banana clones obtained thereby” (Rahan Meristem (1998) Ltd, priority 2004, dated 2012).

Experiments:
Type in all cases: in vivo, Musa acuminata AAA, cv. 'Grande Naine'
[1] = system: normal in-vitro banana Grande Naine plantlets; assay: Influence of GA3 on internode length of in-vitro banana plantlets (GA sensitivity bioassay), normal; conditions: GA3 10 mg/L in medium, grown 5 weeks, hormone-free control 14.2
Experimental: (§1) Somaclonal variants with both high and low sensitivity to GA were generated as a consequence of an extensive duration in tissue culture. Both ‘off-types’ were detectable by a relatively simple bioassay developed in this laboratory (Table 4). […] On the other hand the ‘Extra Dwarf’ phenotype was insensitive to the presence of GA in the medium.
(§2) Meristem culture was performed on a single ‘Grande Naine’ clone employing a standard protocol used at Rahan Meristem. The meristems were sub-cultured extensively (23 cycles) to induce somaclonal variations. The in vitro plantlets were transferred to a stage III medium containing 10 ppm of gibberellic acid (GA). […] Further analysis of somaclonal variation was carried out in ex-vitro conditions. Following acclimatization, the plants were planted in 5 L pots and placed in a poly-ethylene covered greenhouse for approximately 16 weeks prior to selection of ‘off-types’. Candidate plants showing distinct somaclonal variations were selected and used for further analysis. Stability of the different mutations was monitored following the growth of the selected clones in a commercial plantation in Rosh Hanikra, Israel.

[2] = system: Extra dwarf mutant banana Grande Naine plantlets; assay: Influence of GA3 on internode length of in-vitro banana plantlets (GA sensitivity bioassay), Extra dwarf
Experimental: as §1, §2

[3] = system: Dwarf mutant banana Grande Naine plantlets; assay: Influence of GA3 on internode length of in-vitro banana plantlets (GA sensitivity bioassay), Dwarf
Experimental: as §1, §2

In the case of `C=C1C[C@]23C[C@@]1(O)CC[C@H]2[C@@]12C=C[C@H](O)[C@@](C)(C(=O)O1)[C@H]2[C@@H]3C(=O)O` [GA3, gibberellic acid], the “"internode" length” value [1] is reported as 21.7 a cm, the “sensitivity to GA” value ([2]; 'Extra Dwarf' phenotype, GA in the medium) is reported as “insensitive” and the “"internode" length” value ([2]; Extra dwarf mutant plantlets, GA3 10 mg/L in medium, grown 5 weeks, hormone-free control 9.6) is reported as 9.6 cm·days. The “"internode" length” value ([3]; Dwarf plantlets, GA3 10 mg/L in medium, grown 5 weeks, hormone-free control 10.8) was 14.9 b cm and the “sensitivity to GA” value ([3]; dwarf genotype, GA in the medium) was “showed sensitivity”.
